Data published in the supplement of paper PMC11061612.

Tests used:
SIMA (Neuroblastoma) [1] = test: combination Emax (second highest fraction inhibited in the dose matrix, 72 h); higher = more inhibition; extreme values may be limits of the assay
Procedure, shortened: (§1)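 Cell lines in DMEM/F12 or RPMI with 10% FBS were plated in 1536-well plates, held 24 hours at 37°C, 5% CO2, then given two-drug dose matrices for 72 hours (DMSO typically 0.2%). Viability was read by CellTiter-Glo 2.0 luminescence and scaled as inhibition from 0 (vehicle wells) to 1 (blank wells). Combination Emax is the second-highest inhibition in the matrix; Bliss excess is observed combination effect minus expected EA + EB − EA·EB, EA and EB being single-agent effects.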

RH-18 (Rhabdomyosarcoma) [2] = test: as above
Procedure, shortened: as §1

SIMA (Neuroblastoma) [3] = test: Bliss excess, mean over the matrix (fraction); higher = more synergy
Procedure, shortened: as §1

[4] = tested on: 8305C (Thyroid Gland Carcinoma); test: as above
Procedure, shortened: as §1

[5] = tested on: MDA-MB-468 (Breast Carcinoma); test: as above
Procedure, shortened: as §1

[6] = tested on: KYSE-410 (Esophageal Squamous Cell Carcinoma); test: as above
Procedure, shortened: as §1

[7] = tested on: CTB-1 (B-Cell Non-Hodgkin's Lymphoma); test: as above
Procedure, shortened: as §1

[8] = tested on: Hs-633T (Other Solid Carcinomas); test: as above
Procedure, shortened: as §1

[9] = tested on: NCI-H747 (Colorectal Carcinoma); test: as above
Procedure, shortened: as §1

RH-18 (Rhabdomyosarcoma) [10] = test: as above
Procedure, shortened: as §1

[11] = tested on: 639-V (Bladder Carcinoma); test: as above
Procedure, shortened: as §1

[12] = tested on: HARA (Squamous Cell Lung Carcinoma); test: as above
Procedure, shortened: as §1
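For Bliss excess, mean over the matrix in this document: after 72 h of two-drug dosing.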

Structure (SMILES) | combination Emax (SIMA (Neuroblastoma) [1]) | combination Emax (RH-18 (Rhabdomyosarcoma) [2]) | Bliss excess (SIMA (Neuroblastoma) [3]) | Bliss excess [4] | Bliss excess [5] | Bliss excess [6] | Bliss excess [7] | Bliss excess [8] | Bliss excess [9] | Bliss excess (RH-18 (Rhabdomyosarcoma) [10]) | Bliss excess [11] | Bliss excess [12]
COc1cc2c(cc1OCCCCCOc1cc3c(cc1OC)C(=O)N1C=C(C)C[C@H]1C=N3)N=C[C@@H]1CC(C)=CN1C2=O [SG3199] + O=C(c1cc(Cc2n[nH]c(=O)c3ccccc23)ccc1F)N1CCN(C(=O)C2CC2)CC1 [Olaparib] (first compound max 0.001 µM, 7x7, partner max 10 µM) | 0.421 | 0.174 | -0.0214 | -0.0854 | -0.0971 | -0.0334 | -0.043 | -0.0312 | -0.0269 | -0.0378 | -0.0289 | -0.0066
Cc1c2c(nn1C)CSCc1cc(n(C)n1)CSc1cc(c3ccccc3c1)OCCCc1c(C(=O)O)n(C)c3c-2c(Cl)ccc13 [AZD5991] + CCN(CCO)CCCOc1ccc2c(Nc3cc(CC(=O)Nc4cccc(F)c4)[nH]n3)ncnc2c1 [AZD2811] (first compound max 1 µM, 7x7, partner max 1 µM) | 0.768 |  | -0.0271 | -0.0204 | -0.0025 | 0.045 | -0.0167 | -0.0106 | -0.0133 |  | 0.0649 | 0.0761
CN(CCO)CC[C@H](CSc1ccccc1)Nc1ccc(S(=O)(=O)NC(=O)c2ccc(N3CCC([C@@H](O)c4ccccc4-c4ccc(Cl)cc4)CC3)cc2)cc1S(=O)(=O)C(F)(F)F [AZD4320] + C[C@@H]1COCCN1C2=NC(=NC(=C2)C3(CC3)[S@](=N)(=O)C)C4=C5C=CNC5=NC=C4 [AZD6738] (first compound max 1 µM, 7x7, partner max 10 µM) | 1 |  | 0.0068 | -0.004 | 0.0161 | -0.0723 | -0.0791 | -0.0092 | -0.0649 |  | -0.0022 | -0.0319
Cc1c2c(nn1C)CSCc1cc(n(C)n1)CSc1cc(c3ccccc3c1)OCCCc1c(C(=O)O)n(C)c3c-2c(Cl)ccc13 [AZD5991] + C1CN(CCC1(C(=O)N[C@@H](CCO)C2=CC=C(C=C2)Cl)N)C3=NC=NC4=C3C=CN4 [Capivasertib] (first compound max 1 µM, 7x7, partner max 3 µM) | 0.176 |  | -0.0195 | 0.0008 | 0.0256 | -0.0218 | -0.0048 | 0.0123 | 0.0106 |  | -0.0036 | -0.0041
CN(CCO)CC[C@H](CSc1ccccc1)Nc1ccc(S(=O)(=O)NC(=O)c2ccc(N3CCC([C@@H](O)c4ccccc4-c4ccc(Cl)cc4)CC3)cc2)cc1S(=O)(=O)C(F)(F)F [AZD4320] + CCN(CCO)CCCOc1ccc2c(Nc3cc(CC(=O)Nc4cccc(F)c4)[nH]n3)ncnc2c1 [AZD2811] (first compound max 1 µM, 7x7, partner max 1 µM) | 0.971 |  | 0.0814 | 0.0076 | 0.0461 | -0.0437 | -0.0596 | -0.0212 | -0.0558 |  | 0.0502 | 0.106
COc1cccc(OCCCN)c1-c1cc(Nc2cnc(C#N)cn2)n[nH]1 [Prexasertib] + CCc1c2c(nc3ccc(O)cc13)-c1cc3c(c(=O)n1C2)COC(=O)[C@]3(O)CC [SN-38] (first compound max 1 µM, 7x7, partner max 0.3 µM) |  | 0.689 |  | -0.014 | -0.0015 | -0.0192 | -0.0622 | -0.0609 | 0.0283 | -0.0464 | -0.0477 | 0.0262
CN(CCO)CC[C@H](CSc1ccccc1)Nc1ccc(S(=O)(=O)NC(=O)c2ccc(N3CCC([C@@H](O)c4ccccc4-c4ccc(Cl)cc4)CC3)cc2)cc1S(=O)(=O)C(F)(F)F [AZD4320] + Cc1cc2ncnn2cc1Nc1ncc2c(n1)n(C1CCOCC1)c(=O)n2C [AZD7648] (first compound max 1 µM, 7x7, partner max 10 µM) | 0.862 |  | 0.0256 | 0.0242 | -0.0012 | -0.0406 | -0.0401 | 0.0109 | -0.0192 |  | -0.0244 | -0.0133
Cc1c2c(nn1C)CSCc1cc(n(C)n1)CSc1cc(c3ccccc3c1)OCCCc1c(C(=O)O)n(C)c3c-2c(Cl)ccc13 [AZD5991] + C[C@@H]1COCCN1C2=NC(=NC(=C2)C3(CC3)[S@](=N)(=O)C)C4=C5C=CNC5=NC=C4 [AZD6738] (first compound max 1 µM, 7x7, partner max 10 µM) | 0.98 |  | 0.024 | -0.0605 | 0.0455 | 0.0281 | -0.0314 | 0.0184 | -0.018 |  | 0.0431 | -0.0283
CN(C)CCCOc1ccc(-c2ccc3ncc4c(c3c2)n(C2CCOCC2)c(=O)n4C)cn1 [AZD0156] + O=C(c1cc(Cc2n[nH]c(=O)c3ccccc23)ccc1F)N1CCN(C(=O)C2CC2)CC1 [Olaparib] (first compound max 3 µM, partner max 3 µM) | 0.386 |  | 0.0694 | -0.014 | 0.0645 | 0.0007 |  | 0.17 | -0.0461 |  | 0.0535 | 0.0504
CCc1c2c(nc3ccc(O)cc13)-c1cc3c(c(=O)n1C2)COC(=O)[C@]3(O)CC [SN-38] + O=C(c1cc(Cc2n[nH]c(=O)c3ccccc23)ccc1F)N1CCN(C(=O)C2CC2)CC1 [Olaparib] (first compound max 0.3 µM, 7x7, partner max 10 µM) |  | 0.76 |  | 0.04 | 0.0941 | 0.0014 | 0.0546 | 0.17 | 0.0512 | 0.0899 | 0.0917 | 0.124
Cc1c2c(nn1C)CSCc1cc(n(C)n1)CSc1cc(c3ccccc3c1)OCCCc1c(C(=O)O)n(C)c3c-2c(Cl)ccc13 [AZD5991] + C[C@@H](Nc1cc(F)cc(F)c1)c1cc(C(=O)N(C)C)cc2c(=O)cc(N3CCOCC3)oc12 [AZD8186] (first compound max 1 µM, 7x7, partner max 3 µM) | 0.218 |  | -0.0084 | -0.0844 | 0.0092 | -0.0639 | -0.0135 | 0.0127 | -0.0421 |  | 0.0519 | -0.0036
C=CCn1c(=O)c2cnc(Nc3ccc(N4CCN(C)CC4)cc3)nc2n1-c1cccc(C(C)(C)O)n1 [AZD1775] + C1CN(CCC1(C(=O)N[C@@H](CCO)C2=CC=C(C=C2)Cl)N)C3=NC=NC4=C3C=CN4 [Capivasertib] (first compound max 3 µM, partner max 3 µM) | 0.94 |  | -0.0416 | 0.0069 |  | -0.0015 |  | 0.0389 | -0.0485 |  | -0.0541 | -0.0002
Cc1c2c(nn1C)CSCc1cc(n(C)n1)CSc1cc(c3ccccc3c1)OCCCc1c(C(=O)O)n(C)c3c-2c(Cl)ccc13 [AZD5991] + CC1(C)CCC(CN2CCN(c3ccc(C(=O)NS(=O)(=O)c4ccc(NCC5CCOCC5)c([N+](=O)[O-])c4)c(Oc4cnc5[nH]ccc5c4)c3)CC2)=C(c2ccc(Cl)cc2)C1 [Venetoclax] (first compound max 1 µM, 7x7, partner max 1 µM) | 0.46 |  | 0.107 | -0.0189 | 0.0812 | -0.0393 | -0.0491 | -0.016 | -0.0438 |  | 0.0009 | -0.0091
CN(CCO)CC[C@H](CSc1ccccc1)Nc1ccc(S(=O)(=O)NC(=O)c2ccc(N3CCC([C@@H](O)c4ccccc4-c4ccc(Cl)cc4)CC3)cc2)cc1S(=O)(=O)C(F)(F)F [AZD4320] + C=CCn1c(=O)c2cnc(Nc3ccc(N4CCN(C)CC4)cc3)nc2n1-c1cccc(C(C)(C)O)n1 [AZD1775] (first compound max 1 µM, partner max 1 µM) | 1 |  | -0.0156 | -0.0178 | 0.032 | -0.0313 | -0.0309 | 0.0672 | -0.0238 |  | -0.0437 | -0.0129
CN(CCO)CC[C@H](CSc1ccccc1)Nc1ccc(S(=O)(=O)NC(=O)c2ccc(N3CCC([C@@H](O)c4ccccc4-c4ccc(Cl)cc4)CC3)cc2)cc1S(=O)(=O)C(F)(F)F [AZD4320] + C1CN(CCC1(C(=O)N[C@@H](CCO)C2=CC=C(C=C2)Cl)N)C3=NC=NC4=C3C=CN4 [Capivasertib] (first compound max 1 µM, 7x7, partner max 3 µM) | 0.814 |  | -0.0435 | -0.0663 | -0.0528 | -0.0686 | -0.0277 | -0.0193 | -0.0682 |  | -0.0503 | -0.0268
Cc1c2c(nn1C)CSCc1cc(n(C)n1)CSc1cc(c3ccccc3c1)OCCCc1c(C(=O)O)n(C)c3c-2c(Cl)ccc13 [AZD5991] + C=CCn1c(=O)c2cnc(Nc3ccc(N4CCN(C)CC4)cc3)nc2n1-c1cccc(C(C)(C)O)n1 [AZD1775] (first compound max 1 µM, partner max 1 µM) | 0.973 |  | -0.0713 | -0.0065 | -0.0956 | 0.0218 | -0.0417 | -0.0399 | -0.0103 |  | 0.0854 | 0.0014
CN(CCO)CC[C@H](CSc1ccccc1)Nc1ccc(S(=O)(=O)NC(=O)c2ccc(N3CCC([C@@H](O)c4ccccc4-c4ccc(Cl)cc4)CC3)cc2)cc1S(=O)(=O)C(F)(F)F [AZD4320] + CN(C)CCCOc1ccc(-c2ccc3ncc4c(c3c2)n(C2CCOCC2)c(=O)n4C)cn1 [AZD0156] (first compound max 1 µM, 7x7, partner max 1 µM) | 0.848 |  | -0.14 | -0.0489 | -0.127 | -0.0482 | -0.0376 | -0.014 | -0.0546 |  | -0.0209 | 0.0007
Cc1c2c(nn1C)CSCc1cc(n(C)n1)CSc1cc(c3ccccc3c1)OCCCc1c(C(=O)O)n(C)c3c-2c(Cl)ccc13 [AZD5991] + Cn1cnc2c(F)c(Nc3ccc(Br)cc3Cl)c(C(=O)NOCCO)cc21 [Selumetinib] (first compound max 1 µM, 7x7, partner max 3 µM) | 0.516 |  | 0.0879 | -0.0511 | -0.0389 | -0.0058 | -0.02 | 0.0542 | 0.0032 |  | 0.0247 | -0.0263
Cc1c2c(nn1C)CSCc1cc(n(C)n1)CSc1cc(c3ccccc3c1)OCCCc1c(C(=O)O)n(C)c3c-2c(Cl)ccc13 [AZD5991] + CN(C)CCCOc1ccc(-c2ccc3ncc4c(c3c2)n(C2CCOCC2)c(=O)n4C)cn1 [AZD0156] (first compound max 1 µM, 7x7, partner max 1 µM) | 0.398 |  | 0.0197 | -0.0178 | -0.0544 | -0.028 | -0.0457 | 0.0239 | -0.0289 |  | -0.0065 | 
